Measured values from patent EP0084597A1, “Triazole and imidazole derivatives and pharmaceutical preparations containing them” (BAYER AG, priority 1981, dated 1983).
≈ marks a conversion by molar mass, not a printed value.

How the values were obtained:
Torulopsis glabrata = assay: Antimycotic in-vitro activity, serial dilution test (MIC); type: cell-based; details: meat extract-glucose broth, 20°C, 24 to 96 hours, inoculum 5 x 10^4 germs/ml; for MIC: Nakaseomyces glabratus, read-out: MHK-Werte in γ/ml Nährmedium, Torulopsis glabrata
Method: (§1) Die in-vitro-Prüfungen wurden im Reihenverdünnungstest mit Keiminokula von durchschnittlich 5 x 10^4 Keimen/ml Substrat durchgeführt. Als Nährmedium dienten • a) für Dermatophyten und Schimmelpilze: Sabourand's milieu d'epreuve • b) für Hefen: Fleischextrakt-Traubenzucker-Bouillon.
(§2) Die Bebrütungstemperatur betrug 20°C, die Bebrütungsdauer lag bei 24 bis 96 Stunden bei Hefen und 96 Stunden bei Dermatophyten und Schimmelpilzen.

Microsporum canis = assay: as above; type: cell-based; details: Sabouraud medium, 20°C, inoculum 5 x 10^4 germs/ml; for MHK-Werte in γ/ml Nährmedium, Microsporum canis: 96 hours; for MIC: Microsporum canis, 96 h, read-out: MHK-Werte in γ/ml Nährmedium, Microsporum canis
Method: as §1, §2

Candida albicans = assay: as above; type: cell-based; details: meat extract-glucose broth, 20°C, 24 to 96 hours, inoculum 5 x 10^4 germs/ml; for MIC: Candida albicans, read-out: MHK-Werte in γ/ml Nährmedium, Candida albicans
Method: as §1, §2

Aspergillus fumig. = assay: as above; type: cell-based, Aspergillus fumigatus; details: Sabouraud medium, 20°C, inoculum 5 x 10^4 germs/ml; for MIC: Aspergillus, 96 h, read-out: MHK-Werte in γ/ml Nährmedium, Aspergillus fumig.
Method: as §1, §2

[1] = test system: Dermatophyten und Schimmelpilze, Hefen; assay: Antimycotic in-vitro activity, serial dilution test, overall comparison with known compounds; type: cell-based; details: compared with known compounds (A),(B),(C) and (D)
Method: as §1, §2

Candida-Zellen = assay: Antimycotic in-vivo activity (oral) in mouse candidosis; parameters: species or system Mäuse vom Typ SPF-CF1; key: +++++: sehr gute Wirkung = 90 % Ueberlebende am 6.Tag p.i.; ++++: gute Wirkung = 80 % Ueberlebende am 6.Tag p.i.; +++: Wirkung = 60 % Ueberlebende am 6.Tag p.i.; ++: schwache Wirkung = 40 % Ueberlebende am 6.Tag p.i.; +: Spur Wirkung; k.W.: keine Wirkung
Method: Mäuse vom Typ SPF-CF1 wurden intravenös mit 1 - 2 x 10^6 logarithmisch wachsenden Candida-Zellen, die in physiologischer Kochsalzlösung suspendiert werden, infiziert. Eine Stunde vor und sieben Stunden nach der Infektion werden die Tiere mit jeweils 50 - 100 mg/kg Körpergewicht der Präparate oral behandelt.
Uhbehandelte Tiere starben 3 bis 6 Tage post infektionem. Die Ueberlebensrate am 6.Tag post infektionem betrug bei uhbehandelten Kontrolltieren etwa 5 %.
• +++++ = sehr gute Wirkung = 90 % Ueberlebende am 6.Tag p.i. • ++++ = gute Wirkung = 80 % Ueberlebende am 6.Tag p.i. • +++ = Wirkung = 60 % Ueberlebende am 6.Tag p.i. • ++ = schwache Wirkung = 40 % Ueberlebende am 6.Tag p.i. • + = Spur Wirkung = k.W. = keine Wirkung

[2] = test system: Trichophyton mentagrophytes; assay: Antimycotic in-vivo activity (local) in experimental guinea pig trichophytosis; parameters: species or system Meerschweinchen; key to Wirkung: +++++: sehr gute Wirkung = keine Infektionszeichen am 12.-15.Tag p.i.; ++++: gute Wirkung = geringe Rötung, vereinzelt Schuppen; +++: Wirkung = Rötung, Schuppung, ohne Haarausfall; ++: schwache Wirkung = Rötung, Schuppung, Haarausfall; +: Spur Wirkung = flächiger Haarausfall, entzündliche Hautreaktion; details: for Wirkungen: local treatment; for Wirkung: local treatment 1x daily from day 3 p.i. with a 15% solution in dimethylsulfoxide : glycerol = 1 : 4, signs of infection day 12-15 p.i.
Trichophyton mentagr. = assay: Antimycotic in-vitro activity, serial dilution test (MIC); type: cell-based, Trichophyton mentagrophytes; details: Sabouraud medium, 20°C, 96 hours, inoculum 5 x 10^4 germs/ml; for MIC: Trichophyton, read-out: MHK-Werte in γ/ml Nährmedium, Trichophyton mentagr.
Method: as §1, §2

[3] = mice infected i.v. with 1 - 2 x 10^6 Candida cells, oral 50 - 100 mg/kg one hour before and seven hours after infection, survivors on day 6 p.i.
[4] = mouse candidosis, oral, compared with known compounds (A), (B), (C) and (D)

Row | MIC (Aspergillus fumig.) [µg/mL] | MIC (Trichophyton mentagr.) [µg/mL] | MIC (Torulopsis glabrata) [µg/mL] | MIC (Microsporum canis) [µg/mL] | MIC (Candida albicans) [µg/mL] | SMILES | MHK-Werte in γ/ml Nährmedium, Torulopsis glabrata (Torulopsis glabrata) [µg/mL] | MHK-Werte in γ/ml Nährmedium, Microsporum canis (Microsporum canis) [µg/mL] | MHK-Werte in γ/ml Nährmedium, Candida albicans (Candida albicans) [µg/mL] | antimykotische Wirkung [1] | Wirkung (Candida-Zellen; [3]) | Wirkung (Candida-Zellen; [4]) | Wirkungen [2] | Wirkung [2] | MHK-Werte in γ/ml Nährmedium, Aspergillus fumig. (Aspergillus fumig.; 96 hours) [µg/mL] | MHK-Werte in γ/ml Nährmedium, Trichophyton mentagr. (Trichophyton mentagr.) [µg/mL]
1 | 32 (≈ 93.1 µM) | < 1 |  |  |  | CCC(C(O)c1ccc(Oc2ccc(Cl)cc2)cc1)n1cncn1 (single isomer, unassigned) [Beispiel 29] | 8 | 8 | 8 | bessere antimykotische Wirkung | +++++ (sehr gute Wirkung = 90 % Ueberlebende am 6.Tag p.i.) | bessere Wirkung | bestimmte Wirkungen | +++ |  | 
2 |  |  |  |  |  | CCC(C(O)c1ccc(Oc2ccc(Cl)cc2)cc1)n1cncn1 (single isomer, unassigned) [Beispiel 30] | <1 | 32 | <1 | bessere antimykotische Wirkung | +++ (Wirkung = 60 % Ueberlebende am 6.Tag p.i.) | bessere Wirkung | bestimmte Wirkungen | ++ | >64 | <1
3 |  |  |  |  |  | CCCC(C(O)c1ccc(Oc2ccc(Cl)cc2)cc1)n1cncn1 (single isomer, unassigned) [Beispiel 32] |  |  |  |  | +++++ (sehr gute Wirkung = 90 % Ueberlebende am 6.Tag p.i.) | bessere Wirkung | bestimmte Wirkungen | +++ |  | 
4 |  |  |  |  |  | CCCC(C(=O)c1ccc(Oc2ccc(Cl)cc2)cc1)n1cncn1 (stereo not drawn) [Beispiel 6] |  |  |  |  | +++ (Wirkung = 60 % Ueberlebende am 6.Tag p.i.) | bessere Wirkung | bestimmte Wirkungen | ++++ |  | 
5 | 8 (≈ 23.5 µM) | 4 (≈ 11.7 µM) | 8 (≈ 23.5 µM) | 4 (≈ 11.7 µM) | 4 (≈ 11.7 µM) | CCC(C(=O)c1ccc(Oc2ccc(Cl)cc2)cc1)n1ccnc1 (stereo not drawn) [Beispiel 24] |  |  |  | bessere antimykotische Wirkung | +++ (Wirkung = 60 % Ueberlebende am 6.Tag p.i.) | bessere Wirkung | bestimmte Wirkungen | +++ |  | 
6 | 32 (≈ 97 µM) | < 1 | 2 (≈ 6.06 µM) | 8 (≈ 24.3 µM) | < 1 | CC(C(O)c1ccc(Oc2ccc(Cl)cc2)cc1)n1cncn1 (stereo not drawn) [Beispiel 35] |  |  |  | bessere antimykotische Wirkung | +++ (Wirkung = 60 % Ueberlebende am 6.Tag p.i.) | bessere Wirkung | bestimmte Wirkungen | +++ |  | 
7 | > 64 | < 1 | 4 (≈ 10.8 µM) | 16 (≈ 43 µM) | < 1 | CCCC(n1cncn1)C(C)(O)c1ccc(Oc2ccc(Cl)cc2)cc1 (stereo not drawn) [Beispiel 43] |  |  |  | bessere antimykotische Wirkung | +++++ (sehr gute Wirkung = 90 % Ueberlebende am 6.Tag p.i.) | bessere Wirkung | bestimmte Wirkungen | +++ |  | 
8 | > 64 | 2 (≈ 4.4 µM) | < 1 | 32 (≈ 70.4 µM) | < 1 | CC(n1cncn1)C(O)(Cc1ccc(Cl)cc1)c1ccc(Oc2ccc(Cl)cc2)cc1 (stereo not drawn) [Beispiel 45] |  |  |  | bessere antimykotische Wirkung | + | bessere Wirkung | bestimmte Wirkungen | + |  | 
9 | 32 (≈ 80.4 µM) | < 1 | 8 (≈ 20.1 µM) | 8 (≈ 20.1 µM) | < 1 | C=CCC(O)(c1ccc(Oc2ccc(Cl)cc2)cc1)C(CCC)n1cncn1 (stereo not drawn) [Beispiel 46] |  |  |  | bessere antimykotische Wirkung | ++++ (gute Wirkung = 80 % Ueberlebende am 6.Tag p.i.) | bessere Wirkung |  | + |  | 
10 | 8 (≈ 24.3 µM) | < 1 | < 1 | 8 (≈ 24.3 µM) | < 1 | Cc1cccc(Cl)c1Oc1ccc(C(O)Cn2cncn2)cc1 (stereo not drawn) [Beispiel 47] |  |  |  | bessere antimykotische Wirkung | ++++ (gute Wirkung = 80 % Ueberlebende am 6.Tag p.i.) | bessere Wirkung | bestimmte Wirkungen | ++++ |  | 
